In the oligonucleotide strings, read from the 5' end, every base follows the letter of its sugar. An asterisk marks phosphorothioate; unmarked linkages are phosphodiester. Other units and linkages are bracketed, terminal groups are in braces. A string of capitals states the bases alone. e = 2'-O-(2-methoxyethyl) (MOE); [5mC] = 5-methylcytosine; d = 2'-deoxy (DNA)
Experiments:
bcl-xl mRNA = assay: RNase protection assay, bcl-xl mRNA in A549 cells; format: cell-based, human; settings: RPA, 200 nM
Description: (§1) The ribonuclease (RNase) protection assay is a sensitive and specific method for quantitating expression levels (Zinn, et al., Cell, 1983, 34:865–79). The method is based on the hybridization of a target RNA to an in vitro transcribed ^32P-labeled anti-sense RNA probe from a DNA template. RNase treatment follows, resulting in degradation of single-stranded RNA and excess probe. The probe and target RNA are resolved by denaturing polyacrylamide gel electrophoresis with the “protected” probe visualized using autoradiography or beta imaging equipment. Template sets can be purchased (PharMingen Inc., San Diego Calif.) which contain a series of biologically relevant templates, each of distinct length and each representing a sequence in a distinct mRNA species. Each template set is capable of detecting up to 11 unique gene messages in a single reaction mix in addition to one or more housekeeping genes, L32 and GAPDH, which serve as internal controls. These template sets allow for multiple determinations to be made from a single sample. Multi-probe RPA can be performed on total RNA preparations derived by standard methods, without further purification of poly-A+ RNA.
(§2) Oligonucleotides were evaluated for their respective effects on bcl-xs and bcl-xl mRNA levels along with total bcl-x mRNA levels, using the RIBOQUANT™ RNase protection kit (Pharmingen, San Diego Calif.). All assays were performed according to manufacturer's protocols. Briefly, multi-probe DNA template sets were used to generate antisense RNA transcripts radiolabeled with […]. The template set used for apoptosis genes was the human hAPO-2 set. These radiolabeled probes were hybridized overnight with typically 10 μg of total cellular RNA. The reaction mixture was then digested with single-strand RNases to generate the protected fragments which were electrophoresed through a 5% acrylamide/urea gel. Protected bands were visualized and quantitated using a PhosphorImager (Molecular Dynamics, Sunnyvale Calif.).
(§3) Human bcl-x has two forms, a long form known as bcl-xl and a short form known as bcl-xs. […] The protein of bcl-xl is similar in size and structure to bcl-2, and could inhibit cell death upon growth factor withdrawal. The protein of bcl-xs is 63 amino acids shorter than bcl-xl. It could inhibit the bcl-2 function, thus promoting programmed cell death (apoptosis). Oligonucleotides were evaluated for their respective effects on bcl-xs and bcl-xl mRNA levels along with total bcl-x mRNA levels, using the RIBOQUANT™ RNase protection kit (Pharmingen, San Diego Calif.). All assays were performed according to manufacturer's protocols.
(§4) These oligonucleotides were tested for their inhibitory effects on bcl-xl and bcl-xs mRNA levels in A549 cells, as detected by RPA analysis. Oligonucleotide concentration was 200 nM.

bcl-xs/bcl-xl mRNA ratio = assay: RNase protection assay, bcl-xs/bcl-xl mRNA ratio in A549 cells; format: cell-based, human; settings: A549 cells, RPA, 200 nM; no oligo = 1
Description: as §1, §2, §3, §4

human bcl-x mRNA = assay: Northern blot analysis of bcl-x mRNA levels in A549 cells; format: cell-based
Method: Eighteen hours after antisense treatment, cell monolayers were washed twice with cold PBS and lysed in 1 mL RNAZOL™ (TEL-TEST “B” Inc., Friendswood, Tex.). Total RNA was prepared following manufacturer's recommended protocols. Twenty micrograms of total RNA was fractionated by electrophoresis through 1.2% agarose gels containing 1.1% formaldehyde using a MOPS buffer system (AMRESCO, Inc. Solon, Ohio). RNA was transferred from the gel to HYBOND™-N+ nylon membranes (Amersham Pharmacia Biotech, Piscataway, N.J.) by overnight capillary transfer using a Northern/Southern Transfer buffer system (TEL-TEST “B” Inc., Friendswood, Tex.). RNA transfer was confirmed by UV visualization. Membranes were fixed by UV cross-linking using a STRATALINKER™ UV Crosslinker 2400 (Stratagene, Inc, La Jolla, Calif.).
Membranes were probed using QUICKHYB™ hybridization solution (Stratagene, La Jolla, Calif.) using manufacturer's recommendations for stringent conditions with an 822-base pair bcl-x specific probe prepared by PCR from bases 33–855 of human bcl-xl sequence (Boise et al., 1993, Cell 74:597–608; GenBank accession no. L20121). To normalize for variations in loading and transfer efficiency membranes were stripped and probed for glyceraldehyde-3-phosphate dehydrogenase (GAPDH) RNA (Clontech, Palo Alto, Calif.). Hybridized membranes were visualized and quantitated using a PHOSPHORIMAGER™ and IMAGEQUANT™ Software V3.3 (Molecular Dynamics, Sunnyvale, Calif.). Data was normalized to GAPDH levels in untreated controls.
Oligonucleotides were tested by Northern blot analysis as described in Example 14. Oligonucleotides were tested in A549 cells at a concentration of 400 nM. The results are Table 2:
Oligonucleotides were tested by Northern blot analysis as described in Example 14. Chimeric oligonucleotides were in A549 cells at a concentration of 200 nM. Where present, “N.D.” indicates “not determined”.

[1] = 200 nM chimeric oligonucleotide

105751 (antisense TGGTTCTTACCCAGCCGCCG; all 2'-MOE, all phosphorothioate, methylation of C not given here) [compound 105751]
% CONTROL bcl-xl (bcl-xl mRNA): 34%
bcl-xs/bcl-xl Fold difference (bcl-xs/bcl-xl mRNA ratio): 45 fold

106260 (antisense GTGGCCATCCAAGCTGCGAT; all 2'-MOE, all phosphorothioate, methylation of C not given here) [compound 106260]
% CONTROL bcl-xl (bcl-xl mRNA): 66%
bcl-xs/bcl-xl Fold difference (bcl-xs/bcl-xl mRNA ratio): 12 fold

106252 (antisense GTGGTCATTCAGGTAAGTGG; all 2'-MOE, all phosphorothioate, methylation of C not given here) [compound 106252]
% CONTROL bcl-xl (bcl-xl mRNA): 72%
bcl-xs/bcl-xl Fold difference (bcl-xs/bcl-xl mRNA ratio): 23 fold

26066 (antisense ATCCAAGGCTCTAGGTGGTC; all 2'-MOE, all phosphorothioate, methylation of C not given here) [compound 26066]
% CONTROL bcl-xl (bcl-xl mRNA): 24%
bcl-xs/bcl-xl Fold difference (bcl-xs/bcl-xl mRNA ratio): 37 fold

106249 (antisense CTCTAGGTGGTCATTCAGGT; all 2'-MOE, all phosphorothioate, methylation of C not given here) [compound 106249]
% CONTROL bcl-xl (bcl-xl mRNA): 47%
bcl-xs/bcl-xl Fold difference (bcl-xs/bcl-xl mRNA ratio): 23 fold

106254 (antisense TCATTCAGGTAAGTGGCCAT; all 2'-MOE, all phosphorothioate, methylation of C not given here) [compound 106254]
% CONTROL bcl-xl (bcl-xl mRNA): 80%
bcl-xs/bcl-xl Fold difference (bcl-xs/bcl-xl mRNA ratio): 13 fold

106259 (antisense AAGTGGCCATCCAAGCTGCG; all 2'-MOE, all phosphorothioate, methylation of C not given here) [compound 106259]
% CONTROL bcl-xl (bcl-xl mRNA): 96%
bcl-xs/bcl-xl Fold difference (bcl-xs/bcl-xl mRNA ratio): 15 fold

26080 (antisense CTGGTTACACGACTCCAGGT; all 2'-MOE, all phosphorothioate, methylation of C not given here) [compound 26080]
% CONTROL bcl-xl (bcl-xl mRNA): 77%
bcl-xs/bcl-xl Fold difference (bcl-xs/bcl-xl mRNA ratio): 2 fold

106250 (antisense CTAGGTGGTCATTCAGGTAA; all 2'-MOE, all phosphorothioate, methylation of C not given here) [compound 106250]
% CONTROL bcl-xl (bcl-xl mRNA): 40%
bcl-xs/bcl-xl Fold difference (bcl-xs/bcl-xl mRNA ratio): 21 fold

106258 (antisense GTAAGTGGCCATCCAAGCTG; all 2'-MOE, all phosphorothioate, methylation of C not given here) [compound 106258]
% CONTROL bcl-xl (bcl-xl mRNA): 66%
bcl-xs/bcl-xl Fold difference (bcl-xs/bcl-xl mRNA ratio): 21 fold

TGGTTCTTACCCAGCCGCCG (all 2'-MOE, all phosphorothioate, methylation of C not given here) [ISIS 105751]
bcl-xs/bcl-xl Fold difference (bcl-xs/bcl-xl mRNA ratio): 45 fold

106253 (antisense GGTCATTCAGGTAAGTGGCC; all 2'-MOE, all phosphorothioate, methylation of C not given here) [compound 106253]
% CONTROL bcl-xl (bcl-xl mRNA): 48%
bcl-xs/bcl-xl Fold difference (bcl-xs/bcl-xl mRNA ratio): 19 fold

11220 (antisense dC*dA*dG*dT*dG*dT*dC*dT*dG*dG*dT*dC*dA*dT*dT*dT*dC*dC*dG*dA) [compound 11220]
% CONTROL (bcl-x mRNA levels) (human bcl-x mRNA; 400 nM oligonucleotide): 12%
% INHIB (bcl-x mRNA levels) (human bcl-x mRNA; 400 nM oligonucleotide): 88%

11224 (antisense dT*dC*dG*dC*dC*dT*dG*dC*dC*dT*dC*dC*dC*dT*dC*dA*dG*dC*dG*dC) [compound 11224]
% CONTROL (bcl-x mRNA levels) (human bcl-x mRNA; 400 nM oligonucleotide): 6%
% INHIB (bcl-x mRNA levels) (human bcl-x mRNA; 400 nM oligonucleotide): 94%
IC50 (human bcl-x mRNA; dose-response, Northern blot): ~175 nM

11229 (antisense dA*dC*dC*dA*dG*dT*dC*dC*dA*dT*dT*dG*dT*dC*dC*dA*dA*dA*dA*dC) [compound 11229]
% CONTROL (bcl-x mRNA levels) (human bcl-x mRNA; 400 nM oligonucleotide): 60%
% INHIB (bcl-x mRNA levels) (human bcl-x mRNA; 400 nM oligonucleotide): 40%

16018 (antisense eG*eA*eG*eG*eG*dT*dA*dG*dA*dG*dT*dG*dG*dA*dT*eG*eG*eT*e[5mC]*eA) [compound 16018]
% CONTROL (bcl-x mRNA levels) (human bcl-x mRNA; [1]): 40%
% INHIB (bcl-x mRNA levels) (human bcl-x mRNA; [1]): 60%

16010 (antisense eT*e[5mC]*e[5mC]*eA*eA*dG*dC*dT*dG*dC*dG*dA*dT*dC*dC*eG*eA*e[5mC]*eT*e[5mC]) [compound 16010]
% CONTROL (bcl-x mRNA levels) (human bcl-x mRNA; [1]): 13%
% INHIB (bcl-x mRNA levels) (human bcl-x mRNA; [1]): 87%

11221 (antisense dA*dG*dC*dC*dC*dA*dG*dC*dA*dG*dA*dA*dC*dC*dA*dC*dG*dC*dC*dG) [compound 11221]
% CONTROL (bcl-x mRNA levels) (human bcl-x mRNA; 400 nM oligonucleotide): 11%
% INHIB (bcl-x mRNA levels) (human bcl-x mRNA; 400 nM oligonucleotide): 89%

16003 (antisense eA*eG*eT*eG*eG*dC*dT*dC*dC*dA*dT*dT*dC*dA*dC*e[5mC]*eG*e[5mC]*eG*eG) [compound 16003]
% CONTROL (bcl-x mRNA levels) (human bcl-x mRNA; [1]): 12%
% INHIB (bcl-x mRNA levels) (human bcl-x mRNA; [1]): 88%

11222 (antisense dG*dT*dT*dG*dA*dA*dG*dC*dG*dT*dT*dC*dC*dT*dG*dG*dC*dC*dC*dT) [compound 11222]
% CONTROL (bcl-x mRNA levels) (human bcl-x mRNA; 400 nM oligonucleotide): 35%
% INHIB (bcl-x mRNA levels) (human bcl-x mRNA; 400 nM oligonucleotide): 65%

11219 (antisense dC*dG*dG*dG*dT*dT*dC*dT*dC*dC*dT*dG*dG*dT*dG*dG*dC*dA*dA*dT) [compound 11219]
% CONTROL (bcl-x mRNA levels) (human bcl-x mRNA; 400 nM oligonucleotide): 6%
% INHIB (bcl-x mRNA levels) (human bcl-x mRNA; 400 nM oligonucleotide): 94%

16011 (antisense e[5mC]*eT*eG*eG*eA*dT*dC*dC*dA*dA*dG*dG*dC*dT*dC*eT*eA*eG*eG*eT) [compound 16011]
% CONTROL (bcl-x mRNA levels) (human bcl-x mRNA; [1]): 31%
% INHIB (bcl-x mRNA levels) (human bcl-x mRNA; [1]): 69%

16019 (antisense eG*eG*eA*eG*eG*dA*dT*dG*dT*dG*dG*dT*dG*dG*dA*eG*e[5mC]*eA*eG*eA) [compound 16019]
% CONTROL (bcl-x mRNA levels) (human bcl-x mRNA; [1]): 40%
% INHIB (bcl-x mRNA levels) (human bcl-x mRNA; [1]): 60%

16002 (antisense eA*eG*eG*eT*eG*dC*dC*dA*dG*dG*dA*dT*dG*dG*dG*eT*eT*eG*e[5mC]*e[5mC]) [compound 16002]
% CONTROL (bcl-x mRNA levels) (human bcl-x mRNA; [1]): 8%
% INHIB (bcl-x mRNA levels) (human bcl-x mRNA; [1]): 92%

11223 (antisense dC*dA*dG*dT*dG*dC*dC*dC*dC*dG*dC*dC*dG*dA*dA*dG*dG*dA*dG*dA) [compound 11223]
% CONTROL (bcl-x mRNA levels) (human bcl-x mRNA; 400 nM oligonucleotide): 9%
% INHIB (bcl-x mRNA levels) (human bcl-x mRNA; 400 nM oligonucleotide): 91%

16015 (antisense eG*eT*e[5mC]*eA*eT*dG*dC*dC*dC*dG*dT*dC*dA*dG*dG*eA*eA*e[5mC]*e[5mC]*eA) [compound 16015]
% CONTROL (bcl-x mRNA levels) (human bcl-x mRNA; [1]): 12%
% INHIB (bcl-x mRNA levels) (human bcl-x mRNA; [1]): 88%

— US7148204B2, “Antisense modulation of bcl-x expression” (Isis Pharmaceuticala, Inc., priority 1998, dated 2006)
